{"source": "paper PMC10221320", "key": {"CD-1 mice [1]": {"tested_on": "CD-1 mice", "assay": "Open field test", "format": "in vivo, mouse", "details": "for N (c.z.), number of visits to central zone / N (def), number of bowel movements / N (peeps), number of peeps into minks / N (racks), vertical activity / N (s.p.), number of visits to side platform / S (act), distance traveled during activity / S, distance traveled / T (act), activity time / T (b.z.), staying on the border zone / T (c.z.), time spent on the central zone / T (e.c.z.), time of exit from the central zone / T (pass), passivity time / V(act), average movement speed during activity / V, average travel speed: mean ± SD", "protocol": "(§1) The animal studies were performed under the European Commission’s legislation (Directives 86/609/EEC, 2010/63/EU), the National Standard of the Russian Federation “Good Laboratory Practice” (GOST P 53434-2009, Moscow, Russia), and Committee on Ethics of Laboratory Animal Handling № 05/21, 20 September 2021 and 08/21, 30 December 2021 protocols (PIBOC FEB RAS). Adult female CD-1 mice weighing 25 ± 2 g were subjected to a 12 h light–dark cycle at room temperature and with ad libitum access to food and water. There were seven or eight individuals in each group.\nThe animal activity and anxiety-related and exploratory behaviors were estimated at the open field facility (OpenScience, Krasnogorsk, Russia). Three groups of animals were treated with peptides at doses of 0.01, 0.1 and 1 mg/kg (intravenously) 30 min before testing. The control group was injected with an identical volume (50 µL) of saline. The animals were placed in the center of the lightened arena, and the recording lasted 3 min. Using the software “Minotaur” (LLC “Neurobiotics”, Zelenograd, Russia), 14 parameters were estimated: time (T) of activity (act); passivity (pass); spent on the central zone (c.z.), staying on the border zone (b.z.); exit from the central zone (e.c.z.); average travel speed (V, m/s); average movement speed during activity (V(act)); distance traveled (S, m); distance traveled during activity (S (act)); number (N) of visits to central zone (c.z.); visits to side platform (s.p.); vertical activity (racks); peeps into minks (peeps); and bowel movements (def)."}, "[2]": {"details": "intraperitoneal administration; ref [40]; cited from earlier work"}, "CD-1 mice [3]": {"tested_on": "CD-1 mice", "assay": "Acetic-acid-induced writhings (acid-induced muscle pain model)", "format": "in vivo, mouse", "protocol": "as §1\nThree groups of animals were treated with peptides at doses of 0.01, 0.1 and 1 mg/kg (intravenously) 15 min before an injection of 300 μL of a 0.7% acetic acid solution. The control animal group received an identical volume of saline. The positive control group received intravenously a dose 1 mg/kg of diclofenac (Hemofarm A.D., Vršac, Serbia), a commercial drug of the NSAID group. Fifteen minutes immediately after acid administration, the number of writhings and the writhing time (time in a spasmodic state) were counted."}, "rat ASIC1a (rASIC1a)": {"tested_on": "rat ASIC1a (rASIC1a)", "assay": "Two-electrode voltage clamp, rASIC1a in Xenopus laevis oocytes", "format": "cell-based", "details": "1 μM; pH drop from 7.4 to 5.5; −50 mV; n = 5; recombinant peptide"}, "CD-1 mice [4]": {"tested_on": "CD-1 mice", "assay": "Nociceptive reaction to direct hind paw pad injection", "format": "in vivo, mouse", "details": "1 mg/kg in the hind paw pad; 15 min", "protocol": "as §1\nFor a direct Hmg 1b-4 injection (to eliminate the nociceptive reaction of potentiator of ASIC3 channels), it was dissolved in saline and administered at a dose of 1 mg/kg in the hind paw pad. The control group was injected with an identical volume (20 µL) of saline. The animals were placed individually, and a nociceptive reaction was registered for 15 min."}, "[5]": {"details": "0.01 mg/kg i.v. 30 min before testing, n = 7–8"}, "[6]": {"details": "0.1 mg/kg i.v. 30 min before testing, n = 7–8"}, "[7]": {"details": "1 mg/kg i.v. 30 min before testing, n = 7–8"}, "[8]": {"details": "i.v. 15 min before 0.7% acetic acid"}}, "note": "Positions of bridges follow the written chain, without caps; N, C: chain ends. No end group written: not given here."}
{"sequence": "GTPCDCYGYTGVYWFMLSRCPSGYGYNLSCHYFMGICCVKR (disulfide 4-37, 6-30, 20-38 (inferred)) [Hmg 1b-4]", "values": [{"measurement": "N (c.z.), number of visits to central zone", "setting": "CD-1 mice [1]; [5]", "value": "12 ± 0.8"}, {"measurement": "N (def), number of bowel movements", "setting": "CD-1 mice [1]; [5]", "value": "1.2 ± 0.2"}, {"measurement": "N (peeps), number of peeps into minks", "setting": "CD-1 mice [1]; [5]", "value": "8.0 ± 0.5"}, {"measurement": "N (racks), vertical activity", "setting": "CD-1 mice [1]; [5]", "value": "27.2 ± 1.9"}, {"measurement": "N (s.p.), number of visits to side platform", "setting": "CD-1 mice [1]; [5]", "value": "13.3 ± 1.1"}, {"measurement": "S (act), distance traveled during activity", "setting": "CD-1 mice [1]; [5]", "value": "25.0 ± 2.4", "unit": "m"}, {"measurement": "S, distance traveled", "setting": "CD-1 mice [1]; [5]", "value": "25.0 ± 1.8", "unit": "m"}, {"measurement": "T (act), activity time", "setting": "CD-1 mice [1]; [5]", "value": "113.5 ± 9.5", "unit": "s"}, {"measurement": "T (b.z.), staying on the border zone", "setting": "CD-1 mice [1]; [5]", "value": "145.4 ± 5.2", "unit": "s"}, {"measurement": "T (c.z.), time spent on the central zone", "setting": "CD-1 mice [1]; [5]", "value": "34.2 ± 2.8", "unit": "s"}, {"measurement": "T (e.c.z.), time of exit from the central zone", "setting": "CD-1 mice [1]; [5]", "value": "6.5 ± 3.1", "unit": "s"}, {"measurement": "T (pass), passivity time", "setting": "CD-1 mice [1]; [5]", "value": "64.2 ± 7.4", "unit": "s"}, {"measurement": "V(act), average movement speed during activity", "setting": "CD-1 mice [1]; [5]", "value": "0.22 ± 0.02", "unit": "m/s"}, {"measurement": "V, average travel speed", "setting": "CD-1 mice [1]; [5]", "value": "0.14 ± 0.02", "unit": "m/s"}, {"measurement": "N (c.z.), number of visits to central zone", "setting": "CD-1 mice [1]; [6]", "value": "21.2 ± 6.1"}, {"measurement": "N (def), number of bowel movements", "setting": "CD-1 mice [1]; [6]", "value": 0}, {"measurement": "N (peeps), number of peeps into minks", "setting": "CD-1 mice [1]; [6]", "value": "7.8 ± 2.1"}, {"measurement": "N (racks), vertical activity", "setting": "CD-1 mice [1]; [6]", "value": "37.0 ± 7.8"}, {"measurement": "N (s.p.), number of visits to side platform", "setting": "CD-1 mice [1]; [6]", "value": "20.1 ± 6.4"}, {"measurement": "S (act), distance traveled during activity", "setting": "CD-1 mice [1]; [6]", "value": "24.2 ± 5.1", "unit": "m"}, {"measurement": "S, distance traveled", "setting": "CD-1 mice [1]; [6]", "value": "24.2 ± 5.1", "unit": "m"}, {"measurement": "T (b.z.), staying on the border zone", "setting": "CD-1 mice [1]; [6]", "value": "127.5 ± 10.0", "unit": "s"}, {"measurement": "T (c.z.), time spent on the central zone", "setting": "CD-1 mice [1]; [6]", "value": "53.8 ± 10.3", "unit": "s"}, {"measurement": "T (e.c.z.), time of exit from the central zone", "setting": "CD-1 mice [1]; [6]", "value": "6.1 ± 3.3", "unit": "s"}, {"measurement": "T (pass), passivity time", "setting": "CD-1 mice [1]; [6]", "value": "55.1 ± 11.1", "unit": "s"}, {"measurement": "V(act), average movement speed during activity", "setting": "CD-1 mice [1]; [6]", "value": "0.22 ± 0.03", "unit": "m/s"}, {"measurement": "V, average travel speed", "setting": "CD-1 mice [1]; [6]", "value": "0.14 ± 0.03", "unit": "m/s"}, {"measurement": "T (act), activity time", "setting": "CD-1 mice [1]; 0.1 mg/kg i.v. 30 min before testing, n = 7–8 (SD on next line: Hmg 1b-2 10.7, Hmg 1b-4 13.1)", "value": 122.3, "unit": "s"}, {"measurement": "time spent in the center of the arena", "setting": "CD-1 mice [1]; 0.1 mg/kg i.v., vs control", "value": "increased the time the animals spent in the center of the arena"}, {"measurement": "N (c.z.), number of visits to central zone", "setting": "CD-1 mice [1]; [7]", "value": "16.8 ± 2.7"}, {"measurement": "N (def), number of bowel movements", "setting": "CD-1 mice [1]; [7]", "value": "0.5 ± 0.7"}, {"measurement": "N (peeps), number of peeps into minks", "setting": "CD-1 mice [1]; [7]", "value": "9.0 ± 1.5"}, {"measurement": "N (racks), vertical activity", "setting": "CD-1 mice [1]; [7]", "value": "37.4 ± 3.9"}, {"measurement": "N (s.p.), number of visits to side platform", "setting": "CD-1 mice [1]; [7]", "value": "16.9 ± 2.8"}, {"measurement": "S (act), distance traveled during activity", "setting": "CD-1 mice [1]; [7]", "value": "24.6 ± 7.5", "unit": "m"}, {"measurement": "S, distance traveled", "setting": "CD-1 mice [1]; [7]", "value": "24.6 ± 2.3", "unit": "m"}, {"measurement": "T (b.z.), staying on the border zone", "setting": "CD-1 mice [1]; [7]", "value": "143.8 ± 8.2", "unit": "s"}, {"measurement": "T (c.z.), time spent on the central zone", "setting": "CD-1 mice [1]; [7]", "value": "34.9 ± 5.9", "unit": "s"}, {"measurement": "T (e.c.z.), time of exit from the central zone", "setting": "CD-1 mice [1]; [7]", "value": "6.4 ± 2.4", "unit": "s"}, {"measurement": "T (pass), passivity time", "setting": "CD-1 mice [1]; [7]", "value": "56.8 ± 9.1", "unit": "s"}, {"measurement": "V(act), average movement speed during activity", "setting": "CD-1 mice [1]; [7]", "value": "0.21 ± 0.02", "unit": "m/s"}, {"measurement": "V, average travel speed", "setting": "CD-1 mice [1]; [7]", "value": "0.14 ± 0.01", "unit": "m/s"}, {"measurement": "T (act), activity time", "setting": "CD-1 mice [1]; 1 mg/kg i.v. 30 min before testing, n = 7–8 (SD on next line: Hmg 1b-4 10.4)", "value": 119.9, "unit": "s"}, {"measurement": "number of vertical stances", "setting": "CD-1 mice [1]; 0.1 and 1 mg/kg i.v., vs control", "value": "increased"}, {"measurement": "conclusion on CNS effect", "setting": "CD-1 mice [1]; i.v.", "value": "anxiolytic effect"}, {"measurement": "effect on distance travelled and speed of movement", "setting": "CD-1 mice [1]; i.v.", "value": "did not affect these options"}, {"measurement": "exploration activity (number of peeps into the holes)", "setting": "CD-1 mice [1]; i.v.", "value": "significantly increased the exploration activity of mice"}, {"measurement": "most effective dose on peeps into the holes", "setting": "CD-1 mice [1]; i.v.", "value": 1, "unit": "mg/kg"}, {"measurement": "percentage of the activity time", "setting": "CD-1 mice [1]; i.v., control group 50%, significant increase", "value": 70, "unit": "%"}, {"measurement": "maximal nontoxic dose", "setting": "[2]", "value": 10, "unit": "mg/kg"}, {"measurement": "difference in analgesic activity between the two peptides", "setting": "CD-1 mice [3]; i.v.", "value": "no significant difference in analgesic activity between each other"}, {"measurement": "reduction in duration of writhings vs control", "setting": "CD-1 mice [3]; [8]", "value": "more than 2.5 times"}, {"measurement": "reduction in number of writhings vs control", "setting": "CD-1 mice [3]; [8]", "value": 1.5, "unit": "times"}, {"measurement": "inhibition of rASIC1a currents", "setting": "rat ASIC1a (rASIC1a)", "value": 45, "unit": "%"}, {"measurement": "nociceptive reaction", "setting": "CD-1 mice [4]", "value": "did not induce a nociceptive reaction"}]}
